Experiments:
silkworms = settings: known from literature (Kanaoka et al. 1979; JP 05 271 013); cited from earlier work
[1] = test system: caterpillars of the diamond back moth (Plutella xylostella); test: Plutella test/symptomatology study; format: in vivo; settings: 10 μg/larva; 1 μl acetone solution administered to caterpillars
Procedure: Plutella test/symptomatology study
To prepare an advantgeous preparation of active compound, 10 mg of active compound are mixed with 1 ml of solvent.
1 μl of the solution prepared in this manner is administered to caterpillars of the diamond back moth (Plutella xylostella).
After the desired period of time, the kill in % is determined 100% means that all caterpillars have been killed; 0% means that none of the caterpillars have been killed.

[2] = test system: larvae of the mustard beetle (Phaedon cochleariae); test: Phaedon larvae test; format: in vivo; settings: active compound concentration 1000 ppm; dipped cabbage leaves (Brassica oleracea)
Procedure: (§1) Solvent: 3 parts by weight of dimethylformamide
(§2) Emulsifier: 1 part by weight of alkylaryl polyglycol ether
(§3) To produce a suitable preparation of active compound, 1 part by weight of active compound is mixed with the stated amounts of solvent and emulsifier, and the concentrate is diluted with emulsifier-containing water to the desired concentration.
Cabbage leaves (Brassica oleracea) are treated by being dipped into the preparation of active compound of the desired concentration and populated with larvae of the mustard beetle (Phaedon cochleariae) while the leaves are still moist.
After the desired period of time, the kill in % is determined. 100% means that all beetle larvae have been killed; 0% means that none of the beetle larvae have been killed.

Meloidogyne incognita = test: Meloidogyne test; format: in vivo; settings: active compound concentration 20 ppm; sand, lettuce seeds
Procedure: as §1, §2
To produce a suitable preparation of active compound, 1 part by weight of active compound is mixed with the stated amounts of solvent and emulsifier, and the concentrate is diluted with water to the desired concentration.
Vessels are filled with sand, a solution of the active compound, Meloidogyne incognita-egg larvae suspension and lettuce seeds. The lettuice seeds germinate, and the small plants develop. On the roots, galls are formed.
After the desired period of time, the nematicidal action is determined in % by the formation of galls. 100% means that no galls have been found; 0% means that the number of galls on the treated plants corresponds to that of the untreated control.

[3] = test system: caterpillars of the army worm (Spodoptera frugiperda); test: Spodoptera frugiperda test; format: in vivo; settings: active compound concentration 1000 ppm; dipped cabbage leaves (Brassica oleracea)
Procedure: Spodoptera frugiperda test
Solvent: 31 parts by weight of acetone
as §2, §3
Cabbage leaves (Brassica oleracea) are treated by being dipped into the preparation of active compound of the desired concentration and populated with caterpillars of the army worm (Spodoptera frugiperda) while the leaves are still moist.
After the desired period of time, the kill in % is determined. 100% means that all caterpillars have been killed; 0% means that none of the caterpillars have been killed.

CC(C)C[C@H]1C(=O)O[C@H](Cc2ccccc2)C(=O)N(C)[C@@H](CC(C)C)C(=O)O[C@H](C)C(=O)N(C)[C@@H](CC(C)C)C(=O)O[C@H](Cc2ccccc2)C(=O)N(C)[C@@H](CC(C)C)C(=O)O[C@H](C)C(=O)N1C [PF1022A]
insecticidal activity against silkworms (silkworms): insecticidal activity

CC(C)C[C@H]1C(=O)O[C@H](C(C)C)C(=O)N(C)[C@@H](CC(C)C)C(=O)O[C@H](C(C)C)C(=O)N(C)[C@@H](CC(C)C)C(=O)O[C@H](C(C)C)C(=O)N(C)[C@@H](CC(C)C)C(=O)O[C@H](C(C)C)C(=O)N1C [bassianolide]
insecticidal activity against silkworms (silkworms): insecticidal activity

CC(C)C[C@H]1C(=O)O[C@H](Cc2ccc(N3CCOCC3)cc2)C(=O)N(C)[C@@H](CC(C)C)C(=O)O[C@H](C)C(=O)N(C)[C@@H](CC(C)C)C(=O)O[C@H](Cc2ccc(N3CCOCC3)cc2)C(=O)N(C)[C@@H](CC(C)C)C(=O)O[C@H](C)C(=O)N1C [compound of the formula (I)]
kill rate [1]: 100%
kill rate [2]: 100%
nematicidal action (effect) by the formation of galls (Meloidogyne incognita): 98%
kill rate [3]: 100%

Source: patent publication US20030133962A1, “Pest control agent/pf 1022-221” (priority 1999, published 2003)
